In ChEMBL document CHEMBL1201862, “PubChem BioAssay data set” (2004):
The source made the active and inactive calls. For most assays here, no stated cut-off is given here; in the data, actives have a measured EC50 and inactives only a lower limit.

Assays:
[1] = biological target: T1, Streptokinase A (Streptococcus pyogenes serotype M1, UniProt P10520); assay: viability-normalized secreted streptokinase activity reduction – plasminogen activation absorbance, OD405, dose response (AID 1914); type: functional, Streptococcus pyogenes M1 GAS;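 further: secreted streptokinase activity via plasminogen activation per viability signal from cell pellet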
T1 sequence (P10520 whole entry): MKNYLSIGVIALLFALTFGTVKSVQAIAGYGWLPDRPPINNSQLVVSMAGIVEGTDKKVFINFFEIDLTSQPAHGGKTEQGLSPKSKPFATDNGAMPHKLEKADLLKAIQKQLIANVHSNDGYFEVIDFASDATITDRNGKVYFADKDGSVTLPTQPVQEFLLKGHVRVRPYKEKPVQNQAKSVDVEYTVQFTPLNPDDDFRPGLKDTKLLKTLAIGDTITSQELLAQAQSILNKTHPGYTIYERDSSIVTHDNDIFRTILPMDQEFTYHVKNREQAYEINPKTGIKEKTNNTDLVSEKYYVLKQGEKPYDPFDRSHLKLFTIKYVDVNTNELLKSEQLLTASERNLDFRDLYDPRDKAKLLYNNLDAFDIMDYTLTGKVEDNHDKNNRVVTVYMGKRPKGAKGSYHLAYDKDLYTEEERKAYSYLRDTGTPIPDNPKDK

[2] = Trypanosoma cruzi growth suppression in host cells – NIH3T3 host cells, beta-gal luminescence, confirmation (AID 2044); type: functional, cell-based;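 further: intracellular parasites grown in NIH/3T3 mouse fibroblasts as host cells; luminescent beta-galactosidase reporter signal from transgenic T. cruzi replicating inside host cells; inhibitors lower the luminescence signal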
[3] = NIH3T3 cell viability loss – ATP luminescence, mouse fibroblasts, counter-screen, dose response (AID 2010); type: functional, cell-based;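 further: cells exposed to compound for about 90 hours before reading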
[4] = test system: Streptococcus sp. 'group A'; assay: Streptococcus pyogenes SK(-)GAS viability under kanamycin – luminescence, BacTiterGlo, confirmation, counter-screen for streptokinase expression inhibitor project, dose response (AID 1900); type: functional, organism-based
[5] = test system: Streptococcus; assay: GAS UMAA2166 growth inhibition – luminescence, BacTiterGlo, counter-screen for streptokinase expression inhibitor project, dose response (AID 1915); type: functional, organism-based;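 further: potency for reduction of bacterial viability or growth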
[6] = biological target: T2, Carboxy-terminal domain RNA polymerase II polypeptide A small phosphatase 1 (Homo sapiens, UniProt Q9GZU7); assay: CTDSP1 inhibitors, concentration-response, biochemical, absorbance readout, ultra-high-throughput screen actives (AID 540297); type: functional
T2 sequence (Q9GZU7 whole entry): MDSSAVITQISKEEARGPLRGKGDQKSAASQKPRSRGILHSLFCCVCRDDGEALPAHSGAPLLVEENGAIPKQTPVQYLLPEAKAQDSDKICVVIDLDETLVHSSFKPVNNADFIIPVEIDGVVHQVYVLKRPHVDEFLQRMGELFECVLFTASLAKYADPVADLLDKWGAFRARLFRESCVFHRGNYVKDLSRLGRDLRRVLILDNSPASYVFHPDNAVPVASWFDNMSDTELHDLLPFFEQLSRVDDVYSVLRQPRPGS

[7] = test system: H4; assay: Luminescence Cell-Based Dose Response HTS to Identify Activators of 5'UTR Stem-Loop Driven Prion Protein mRNA Translation in H4 Neuroglioblastoma Cells. [Related pubchem assays: 1829 (Project Summary), 1814 (Primary HTS)]; type: functional; settings: Homo sapiens
[8] = Luminescence Cell-Based Dose Confirmation HTS to Identify Activators of 5'UTR Stem-Loop Driven Alpha-Synuclein mRNA Translation in H4 Neuroglioblastoma Cells. [Related pubchem assays: 1829 (Project Summary), 1814 (Primary HTS)]; type: functional
[9] = Luminescence Cell-Based Dose Response HTS to Identify Activators of Luciferase Translation or Activity in H4 […] Cells. [Related pubchem assays: 1829 (Project Summary), 1814 (Primary HTS)]; type: functional
[10] = test system: INS1; assay: INS-1E survival protection against cytokine death – cell-based, luminescence, retest, dose response (AID 449756); type: functional; settings: Rattus norvegicus;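 further: cell death triggered by IL-1 beta plus TNF-alpha plus IFN-gamma mixture; protective hits raise ATP signal compared with cytokine alone wells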
[11] = biological target: T3, Heat shock factor protein 1 (Mus musculus, UniProt P38532); assay: enhancement of HSF1-driven luciferase signal – cell-based, NIH3T3, luminescence, dose retest, confirmation (AID 435004); type: functional;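 further: stress induced by proteasome inhibitor MG132 added 30 min after compound; luciferase reporter driven by HSF1 response element in NIH3T3 cells; actives raise luminescence as potentiators of the MG132 stress response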
T3 sequence (P38532 whole entry): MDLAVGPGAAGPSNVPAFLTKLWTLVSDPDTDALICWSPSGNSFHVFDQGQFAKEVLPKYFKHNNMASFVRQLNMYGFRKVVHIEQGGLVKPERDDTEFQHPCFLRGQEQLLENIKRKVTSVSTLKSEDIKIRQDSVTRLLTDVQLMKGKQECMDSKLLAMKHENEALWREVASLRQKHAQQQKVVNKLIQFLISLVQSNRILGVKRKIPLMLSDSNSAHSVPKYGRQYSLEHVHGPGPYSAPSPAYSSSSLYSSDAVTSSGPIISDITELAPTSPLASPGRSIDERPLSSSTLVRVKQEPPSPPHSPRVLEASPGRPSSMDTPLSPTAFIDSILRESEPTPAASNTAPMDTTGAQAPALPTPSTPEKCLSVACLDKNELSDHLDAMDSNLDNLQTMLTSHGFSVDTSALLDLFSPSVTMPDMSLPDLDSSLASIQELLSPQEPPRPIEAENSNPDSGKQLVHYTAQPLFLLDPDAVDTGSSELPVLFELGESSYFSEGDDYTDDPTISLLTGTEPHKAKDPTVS

[12] = alpha-synuclein stem-loop luciferase translation blockers – H4 neuroglioma cells, luminescence, confirmation (AID 1988); type: functional, cell-based
[13] = luciferase reporter signal suppression in cells – H4 neuroglioma cells, luminescence, dose response (AID 1990); type: functional, cell-based
[14] = Luminescence Cell-Based Dose Response HTS to Identify Inhibitors of 5'UTR Stem-Loop Driven Prion Protein mRNA Translation in H4 Neuroglioblastoma Cells. [Related pubchem assays: 1827 (Project Summary), 1813 (Primary HTS)]; type: functional
[15] = biological target: T4, Replicative DNA helicase DnaB (Mycobacterium tuberculosis, UniProt P9WMR3); assay: DnaB intein splicing inhibitors, dose response, biochemical, cell-free fluorescence (AID 449749); type: functional
T4 sequence (P9WMR3 whole entry): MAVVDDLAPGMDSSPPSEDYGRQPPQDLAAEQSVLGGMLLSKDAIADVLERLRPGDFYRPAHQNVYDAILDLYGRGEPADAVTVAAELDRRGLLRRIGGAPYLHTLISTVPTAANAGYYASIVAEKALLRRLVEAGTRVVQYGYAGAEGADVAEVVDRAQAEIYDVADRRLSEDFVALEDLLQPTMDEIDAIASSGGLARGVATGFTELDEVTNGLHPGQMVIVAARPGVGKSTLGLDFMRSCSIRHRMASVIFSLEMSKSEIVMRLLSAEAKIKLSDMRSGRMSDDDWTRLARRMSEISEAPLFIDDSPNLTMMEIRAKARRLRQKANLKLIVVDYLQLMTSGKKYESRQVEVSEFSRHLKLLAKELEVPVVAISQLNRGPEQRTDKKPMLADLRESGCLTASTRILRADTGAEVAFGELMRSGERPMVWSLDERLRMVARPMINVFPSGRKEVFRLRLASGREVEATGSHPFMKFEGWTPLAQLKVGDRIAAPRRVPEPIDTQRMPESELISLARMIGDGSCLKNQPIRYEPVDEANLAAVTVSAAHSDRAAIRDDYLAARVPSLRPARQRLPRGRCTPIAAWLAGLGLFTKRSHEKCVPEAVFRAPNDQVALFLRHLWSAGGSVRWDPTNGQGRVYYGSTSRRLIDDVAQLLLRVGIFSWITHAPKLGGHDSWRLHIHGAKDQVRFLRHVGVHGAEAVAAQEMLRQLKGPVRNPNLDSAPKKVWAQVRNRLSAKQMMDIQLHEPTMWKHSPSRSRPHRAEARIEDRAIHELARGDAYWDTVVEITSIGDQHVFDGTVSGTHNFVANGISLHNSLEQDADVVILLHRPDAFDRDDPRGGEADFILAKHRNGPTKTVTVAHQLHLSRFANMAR

[16] = Luminescence Cell-Based Dose Retest to Confirm Inhibitors of Cancer Stem Cells. [Related pubchem assays (depositor defined):AID2717, AID2721]; type: functional; settings: Homo sapiens
[17] = biological target: T5, Protein RecA (Mycobacterium tuberculosis, UniProt P9WHJ3); assay: Fluorescence Cell-Free Homogeneous Dose Retest to Identify Inhibitors of RecA-Intein Splicing Activity. [Related pubchem assays (depositor defined):AID2097, AID2223, AID489010, AID492950]; type: functional
T5 sequence (P9WHJ3 whole entry): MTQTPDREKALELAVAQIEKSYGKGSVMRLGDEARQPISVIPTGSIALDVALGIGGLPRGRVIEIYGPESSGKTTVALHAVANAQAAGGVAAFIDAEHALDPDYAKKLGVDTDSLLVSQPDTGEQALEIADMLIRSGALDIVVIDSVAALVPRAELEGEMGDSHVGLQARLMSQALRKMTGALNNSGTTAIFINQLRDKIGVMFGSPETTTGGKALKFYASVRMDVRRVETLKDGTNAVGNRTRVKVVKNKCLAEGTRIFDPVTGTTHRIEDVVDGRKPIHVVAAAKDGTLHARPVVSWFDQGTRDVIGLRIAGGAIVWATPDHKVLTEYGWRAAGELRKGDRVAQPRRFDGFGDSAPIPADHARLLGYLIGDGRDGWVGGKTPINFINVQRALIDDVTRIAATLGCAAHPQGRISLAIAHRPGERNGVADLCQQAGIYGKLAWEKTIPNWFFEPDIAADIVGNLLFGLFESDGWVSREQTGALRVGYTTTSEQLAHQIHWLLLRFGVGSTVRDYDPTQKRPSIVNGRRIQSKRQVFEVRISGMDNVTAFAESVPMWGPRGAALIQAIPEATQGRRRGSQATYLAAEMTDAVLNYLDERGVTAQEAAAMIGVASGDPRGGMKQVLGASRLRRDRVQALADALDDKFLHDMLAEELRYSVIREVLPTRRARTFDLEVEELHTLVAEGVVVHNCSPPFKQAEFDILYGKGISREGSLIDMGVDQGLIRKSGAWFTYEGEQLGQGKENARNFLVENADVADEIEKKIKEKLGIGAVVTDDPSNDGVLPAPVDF

[18] = microbe, parasite or virus in culture; type: functional; settings: Mycobacterium tuberculosis

| Compound | EC50 [1] | EC50 [4] | EC50 [5] | IC50 [6] | also measured |
| --- | --- | --- | --- | --- | --- |
| CC(C)(C)c1ccc(S(=O)(=O)N2CCC(c3nc4cc(Cl)ccc4[nH]3)CC2)cc1 | 4.13 µM (active) | 5.2 µM (active) | 45.8 µM (active) | – | EC50 [2]: 2.97 µM (active); EC50 [3]: > 60 µM (not active) |
| O=C(CSc1nnc(-c2ccc(S(=O)(=O)N3CCCC3)cc2)o1)NCc1ccco1 | – | – | – | 16.3 µM (active) | – |
| CN(C)S(=O)(=O)c1cccc(NC(=O)COC(=O)/C=C/c2ccco2)c1 | – | – | – | 21.1 µM (active) | – |
| O=C(N/N=C/c1ccc(Cl)cc1)c1ccc2c(c1)OCO2 | – | – | – | 6.93 µM (active) | EC50 [7]: 2.44 µM (active); EC50 [8]: > 120 µM (not active); EC50 [9]: 1.87 µM (active) |
| COc1ccc2c(c1)[N+](C)(C)C(C)(C)C=C2C | – | – | – | 3.14 µM (active) | – |
| Nc1ccc(-c2cn3cccnc3n2)cc1 | > 150 µM (not active) | > 150 µM (not active) | > 150 µM (not active) | – | – |
| Cc1c(Cl)c(C(F)F)nn1CC(=O)NC1C(=O)N2C(C(=O)O)=C(CSc3nnnn3C)CSC12 (stereo not given) | – | < 0.06 µM (active) | 0.106 µM (active) | 6.48 µM (active) | – |
| NCCCn1c(C(=O)c2cc(Cl)c(N)c(Cl)c2)c2ccc([N+](=O)[O-])cc2[n+]1[O-] | > 150 µM (not active) | 2.8 µM (active) | 5.08 µM (active) | – | AC50 [10]: 4.16 µM (active); EC50 [11]: 46.8 µM (active); EC50 [12]: 2.06 µM (active); EC50 [13]: 5.24 µM (active); EC50 [14]: > 120 µM (not active) |
| FC(F)(F)c1ccc(C2[C@H]3CN(Cc4cccnc4)[C@H](c4ccccc4)C34CC2(c2cccnc2)C4)cc1 (stereo not given in full) | 6.65 µM (active) | 2.85 µM (active) | 12 µM (active) | – | AC50 [15]: 3.46 µM (active); AC50 [16]: 3.07 µM (active); EC50 [17]: 24.1 µM (active) |
| C/C(N)=C(/C#N)C(=O)CSc1nc2scc(-c3ccccc3)c2c(=O)n1C | > 150 µM (not active) | 1.8 µM (active) | 11.9 µM (active) | – | – |
| Fc1cccc2sc(Nc3nc4cc5c(cc4s3)OCO5)nc12 | > 150 µM (not active) | > 150 µM (not active) | > 150 µM (not active) | – | CC50 [18]: > 40 µM (active) |
| O=C(Cn1nnc(-c2ccc(NC(=O)c3ccccc3F)cc2)n1)NCc1ccc(F)cc1 | – | – | – | 4.75 µM (active) | – |
